PMC7586344, “Discovery of Novel pERK1/2- or β-Arrestin-Preferring 5-HT1A Receptor-Biased Agonists: Diversified Therapeutic-like versus Side Effect Profile” (Journal of Medicinal Chemistry, 2020)

What was measured:
hERG channel = target: T1, hERG channel (Homo sapiens, UniProt Q12809); assay: hERG-CHO automated patch-clamp; assay type: cell-based
T1 construct: host or cells: CHO (hERG-CHO)

5-HT1D = target: T2, 5-HT1D (Homo sapiens, UniProt P28221); assay: Off-target binding screen; settings: read-out: % Inhibition of Control Specific Binding; for inhibition at 1 µM: 1000 nM
T2 construct: Eurofins Pharma Discovery Services (contract screen)
T2 sequence (P28221 whole entry, species assumed): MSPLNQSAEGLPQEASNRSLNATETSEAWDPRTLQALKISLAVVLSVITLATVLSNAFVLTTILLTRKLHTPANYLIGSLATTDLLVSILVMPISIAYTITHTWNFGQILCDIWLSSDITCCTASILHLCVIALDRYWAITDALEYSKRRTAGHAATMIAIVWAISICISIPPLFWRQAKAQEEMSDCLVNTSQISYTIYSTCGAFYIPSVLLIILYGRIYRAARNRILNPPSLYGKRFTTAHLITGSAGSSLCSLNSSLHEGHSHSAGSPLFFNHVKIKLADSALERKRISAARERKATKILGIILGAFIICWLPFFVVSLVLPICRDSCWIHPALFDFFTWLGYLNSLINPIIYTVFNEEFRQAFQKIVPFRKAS

5-HT2A = target: T3, 5-HT2A (Homo sapiens, UniProt P28223); assay: Off-target binding screen; settings: 1000 nM, read-out: % Inhibition of Control Specific Binding
T3 construct: Eurofins Pharma Discovery Services (contract screen)

5-HT3 = target: T4, 5-HT3 (Homo sapiens, UniProt P46098); assay: Off-target binding screen; settings: 1000 nM, read-out: % Inhibition of Control Specific Binding
T4 construct: Eurofins Pharma Discovery Services (contract screen)
T4 sequence (P46098 24-478): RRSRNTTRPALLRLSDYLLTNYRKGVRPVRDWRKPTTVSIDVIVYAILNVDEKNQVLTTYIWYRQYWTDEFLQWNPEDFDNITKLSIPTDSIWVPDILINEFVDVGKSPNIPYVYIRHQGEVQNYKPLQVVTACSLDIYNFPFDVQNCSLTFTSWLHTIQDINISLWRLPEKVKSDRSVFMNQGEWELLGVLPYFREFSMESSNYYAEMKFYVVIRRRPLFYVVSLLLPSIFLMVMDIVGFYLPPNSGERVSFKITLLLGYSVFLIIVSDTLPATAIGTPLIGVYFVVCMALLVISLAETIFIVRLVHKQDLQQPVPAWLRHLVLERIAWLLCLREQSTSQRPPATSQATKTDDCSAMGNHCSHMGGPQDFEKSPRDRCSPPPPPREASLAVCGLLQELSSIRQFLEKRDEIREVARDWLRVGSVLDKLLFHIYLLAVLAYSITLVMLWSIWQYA

5-HT6 = target: T5, 5-HT6 (Homo sapiens, UniProt P50406); assay: Off-target binding screen; settings: 1000 nM, read-out: % Inhibition of Control Specific Binding
T5 construct: Eurofins Pharma Discovery Services (contract screen)

α2A = target: T6, α2A (Homo sapiens, UniProt P08913); assay: Off-target binding screen; settings: read-out: % Inhibition of Control Specific Binding; for inhibition at 0.01 µM: 10 nM; for inhibition at 0.1 µM: 100 nM; for inhibition at 1 µM: 1000 nM
T6 construct: Eurofins Pharma Discovery Services (contract screen)
T6 sequence (P08913 1-465): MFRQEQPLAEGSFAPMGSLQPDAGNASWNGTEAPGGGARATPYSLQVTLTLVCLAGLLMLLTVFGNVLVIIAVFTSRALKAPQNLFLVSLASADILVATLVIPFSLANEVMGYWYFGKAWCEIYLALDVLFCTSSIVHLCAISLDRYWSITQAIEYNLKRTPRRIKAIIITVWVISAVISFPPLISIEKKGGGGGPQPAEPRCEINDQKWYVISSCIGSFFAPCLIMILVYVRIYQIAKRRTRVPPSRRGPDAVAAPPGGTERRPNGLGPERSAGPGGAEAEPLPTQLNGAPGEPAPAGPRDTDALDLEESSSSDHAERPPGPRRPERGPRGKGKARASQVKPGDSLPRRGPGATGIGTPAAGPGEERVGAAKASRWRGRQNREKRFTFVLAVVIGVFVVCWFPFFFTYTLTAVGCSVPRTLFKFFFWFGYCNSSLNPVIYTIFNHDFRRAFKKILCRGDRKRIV

α2B = target: T7, α2B (Homo sapiens, UniProt P18089); assay: Off-target binding screen; settings: read-out: % Inhibition of Control Specific Binding; for inhibition at 0.01 µM: 10 nM; for inhibition at 0.1 µM: 100 nM; for inhibition at 1 µM: 1000 nM
T7 construct: Eurofins Pharma Discovery Services (contract screen)
T7 sequence (P18089 1-450): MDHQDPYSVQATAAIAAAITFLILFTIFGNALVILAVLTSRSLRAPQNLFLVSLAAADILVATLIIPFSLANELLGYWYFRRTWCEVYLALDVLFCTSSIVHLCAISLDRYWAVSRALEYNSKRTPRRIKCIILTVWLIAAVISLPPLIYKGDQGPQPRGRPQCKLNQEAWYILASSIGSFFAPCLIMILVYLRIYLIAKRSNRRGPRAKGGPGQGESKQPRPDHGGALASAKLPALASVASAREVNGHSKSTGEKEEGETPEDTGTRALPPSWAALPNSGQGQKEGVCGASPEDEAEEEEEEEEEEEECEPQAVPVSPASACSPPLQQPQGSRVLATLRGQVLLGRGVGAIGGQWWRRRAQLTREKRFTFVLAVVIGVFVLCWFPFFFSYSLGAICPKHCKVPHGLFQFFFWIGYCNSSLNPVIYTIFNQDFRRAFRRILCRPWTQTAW

β2 = target: T8, β2 (Homo sapiens, UniProt P07550); assay: Off-target binding screen; settings: 1000 nM, read-out: % Inhibition of Control Specific Binding
T8 construct: Eurofins Pharma Discovery Services (contract screen)
T8 sequence (P07550 whole entry): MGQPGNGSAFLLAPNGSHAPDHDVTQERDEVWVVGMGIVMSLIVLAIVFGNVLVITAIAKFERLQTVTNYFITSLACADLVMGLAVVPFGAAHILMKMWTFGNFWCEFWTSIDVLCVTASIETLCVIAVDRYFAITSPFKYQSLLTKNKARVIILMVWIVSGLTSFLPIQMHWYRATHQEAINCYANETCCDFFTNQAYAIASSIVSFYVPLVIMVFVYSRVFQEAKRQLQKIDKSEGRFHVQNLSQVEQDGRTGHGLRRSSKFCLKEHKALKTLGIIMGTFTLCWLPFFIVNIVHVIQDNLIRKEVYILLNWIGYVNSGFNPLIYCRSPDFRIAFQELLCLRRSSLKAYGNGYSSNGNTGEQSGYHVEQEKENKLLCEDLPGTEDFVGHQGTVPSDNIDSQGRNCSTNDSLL

β3 = target: T9, β3 (Homo sapiens, UniProt P13945); assay: Off-target binding screen; settings: 1000 nM, read-out: % Inhibition of Control Specific Binding
T9 construct: Eurofins Pharma Discovery Services (contract assay)

D1 = target: T10, D1 (Homo sapiens, UniProt P21728); assay: Off-target binding screen; settings: read-out: % Inhibition of Control Specific Binding; for inhibition at 1 µM: 1000 nM
T10 construct: Eurofins Pharma Discovery Services (contract assay)

D3 = target: T11, D3 (Homo sapiens, UniProt P35462); assay: Off-target binding screen; settings: read-out: % Inhibition of Control Specific Binding; for inhibition at 0.01 µM: 10 nM; for inhibition at 0.1 µM: 100 nM; for inhibition at 1 µM: 1000 nM
T11 construct: Eurofins Pharma Discovery Services (contract assay)

CB1 = target: T12, CB1 (Homo sapiens, UniProt P21554); assay: Off-target binding screen; settings: 1000 nM, read-out: % Inhibition of Control Specific Binding
T12 construct: Eurofins Pharma Discovery Services (contract assay)

CB2 = target: T13, CB2 (Homo sapiens, UniProt P34972); assay: Off-target binding screen; settings: 1000 nM, read-out: % Inhibition of Control Specific Binding
T13 construct: Eurofins Pharma Discovery Services (contract assay)
T13 sequence (P34972 whole entry, species assumed): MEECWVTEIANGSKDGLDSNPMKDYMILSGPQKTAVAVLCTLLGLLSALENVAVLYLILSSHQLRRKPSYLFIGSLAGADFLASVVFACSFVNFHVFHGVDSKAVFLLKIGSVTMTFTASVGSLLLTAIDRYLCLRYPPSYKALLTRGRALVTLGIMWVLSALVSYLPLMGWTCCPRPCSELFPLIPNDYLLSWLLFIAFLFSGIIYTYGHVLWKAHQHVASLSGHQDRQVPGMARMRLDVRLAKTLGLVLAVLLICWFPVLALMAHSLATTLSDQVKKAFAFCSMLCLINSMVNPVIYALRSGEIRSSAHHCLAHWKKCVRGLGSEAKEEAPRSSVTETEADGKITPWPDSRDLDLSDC

M3 = target: T14, M3 (Homo sapiens, UniProt P20309); assay: Off-target binding screen; settings: 1000 nM, read-out: % Inhibition of Control Specific Binding
T14 construct: Eurofins Pharma Discovery Services (contract assay)
T14 sequence (P20309 whole entry): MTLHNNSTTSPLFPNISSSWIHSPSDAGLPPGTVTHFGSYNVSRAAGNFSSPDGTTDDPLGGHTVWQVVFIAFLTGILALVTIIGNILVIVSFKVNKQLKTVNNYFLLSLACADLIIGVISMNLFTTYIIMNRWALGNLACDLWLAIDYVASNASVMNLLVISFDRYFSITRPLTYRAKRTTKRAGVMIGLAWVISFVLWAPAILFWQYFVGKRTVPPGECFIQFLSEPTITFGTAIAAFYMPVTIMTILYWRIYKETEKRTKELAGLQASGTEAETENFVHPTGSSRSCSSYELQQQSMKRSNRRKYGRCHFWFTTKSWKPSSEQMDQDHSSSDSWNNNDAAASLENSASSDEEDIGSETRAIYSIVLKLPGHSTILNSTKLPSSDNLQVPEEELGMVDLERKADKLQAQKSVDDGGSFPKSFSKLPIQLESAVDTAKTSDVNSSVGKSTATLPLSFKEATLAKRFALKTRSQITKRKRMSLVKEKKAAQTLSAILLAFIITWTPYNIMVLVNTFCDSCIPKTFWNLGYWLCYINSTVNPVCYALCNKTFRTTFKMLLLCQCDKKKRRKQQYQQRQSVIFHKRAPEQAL

H2 = target: T15, H2 (Homo sapiens, UniProt P25021); assay: Off-target binding screen; settings: 1000 nM, read-out: % Inhibition of Control Specific Binding
T15 construct: Eurofins Pharma Discovery Services (contract assay)
T15 sequence (P25021 whole entry): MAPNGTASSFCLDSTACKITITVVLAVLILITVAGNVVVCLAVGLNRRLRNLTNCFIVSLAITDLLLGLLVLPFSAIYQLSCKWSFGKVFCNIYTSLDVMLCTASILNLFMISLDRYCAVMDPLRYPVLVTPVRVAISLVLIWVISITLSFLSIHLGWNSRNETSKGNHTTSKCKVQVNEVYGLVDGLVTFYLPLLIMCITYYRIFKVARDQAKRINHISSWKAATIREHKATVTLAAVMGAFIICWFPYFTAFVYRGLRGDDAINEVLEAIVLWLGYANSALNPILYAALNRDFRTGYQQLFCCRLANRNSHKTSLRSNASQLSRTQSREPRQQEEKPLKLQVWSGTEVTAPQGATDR

H3 = target: T16, H3 (Homo sapiens, UniProt Q9Y5N1); assay: Off-target binding screen; settings: 1000 nM, read-out: % Inhibition of Control Specific Binding
T16 construct: Eurofins Pharma Discovery Services (contract assay)
T16 sequence (Q9Y5N1 whole entry): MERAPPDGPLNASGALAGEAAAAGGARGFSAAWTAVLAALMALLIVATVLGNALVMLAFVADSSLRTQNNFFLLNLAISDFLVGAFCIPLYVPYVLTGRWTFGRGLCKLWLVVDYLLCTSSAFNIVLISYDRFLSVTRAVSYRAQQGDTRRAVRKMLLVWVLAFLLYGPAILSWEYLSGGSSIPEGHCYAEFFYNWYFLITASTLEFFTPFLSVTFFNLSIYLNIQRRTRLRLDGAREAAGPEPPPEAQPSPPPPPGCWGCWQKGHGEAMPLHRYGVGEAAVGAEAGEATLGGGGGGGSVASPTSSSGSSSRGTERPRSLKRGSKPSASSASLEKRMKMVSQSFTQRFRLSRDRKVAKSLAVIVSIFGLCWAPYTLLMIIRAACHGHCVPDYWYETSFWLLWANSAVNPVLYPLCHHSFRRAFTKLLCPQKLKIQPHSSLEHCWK

H4 = target: T17, H4 (Homo sapiens, UniProt Q9H3N8); assay: Off-target binding screen; settings: 1000 nM, read-out: % Inhibition of Control Specific Binding
T17 construct: Eurofins Pharma Discovery Services (contract assay)

µ (MOR) = target: T18, µ (MOR) (Homo sapiens, UniProt P35372); assay: Off-target binding screen; settings: read-out: % Inhibition of Control Specific Binding; for inhibition at 1 µM: 1000 nM
T18 construct: Eurofins Pharma Discovery Services (contract assay)

σ1 = target: T19, σ1 (Homo sapiens, UniProt Q99720); assay: Off-target binding screen; settings: read-out: % Inhibition of Control Specific Binding; for inhibition at 0.01 µM: 10 nM; for inhibition at 0.1 µM: 100 nM; for inhibition at 1 µM: 1000 nM
T19 construct: Eurofins Pharma Discovery Services (contract assay)
T19 sequence (Q99720 whole entry): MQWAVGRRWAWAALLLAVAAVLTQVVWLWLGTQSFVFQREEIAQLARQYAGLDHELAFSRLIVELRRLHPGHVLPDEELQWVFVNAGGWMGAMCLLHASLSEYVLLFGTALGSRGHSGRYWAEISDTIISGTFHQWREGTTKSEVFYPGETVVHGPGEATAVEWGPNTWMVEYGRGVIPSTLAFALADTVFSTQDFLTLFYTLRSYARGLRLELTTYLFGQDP

BZDp (TSPO) = target: T20, BZDp (TSPO) (Homo sapiens, UniProt P30536); assay: Off-target binding screen; settings: 1000 nM, read-out: % Inhibition of Control Specific Binding
T20 construct: Eurofins Pharma Discovery Services (contract assay)
T20 sequence (P30536 whole entry): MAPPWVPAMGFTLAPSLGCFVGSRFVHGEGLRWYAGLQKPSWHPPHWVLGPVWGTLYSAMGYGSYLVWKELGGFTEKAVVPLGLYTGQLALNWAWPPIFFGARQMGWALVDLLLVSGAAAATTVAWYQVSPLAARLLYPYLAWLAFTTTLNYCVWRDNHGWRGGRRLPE

SERT = target: T21, SERT (Homo sapiens, UniProt P31645); assay: Off-target binding screen; settings: 1000 nM, read-out: % Inhibition of Control Specific Binding
T21 construct: Eurofins Pharma Discovery Services
T21 sequence (P31645 whole entry, species assumed): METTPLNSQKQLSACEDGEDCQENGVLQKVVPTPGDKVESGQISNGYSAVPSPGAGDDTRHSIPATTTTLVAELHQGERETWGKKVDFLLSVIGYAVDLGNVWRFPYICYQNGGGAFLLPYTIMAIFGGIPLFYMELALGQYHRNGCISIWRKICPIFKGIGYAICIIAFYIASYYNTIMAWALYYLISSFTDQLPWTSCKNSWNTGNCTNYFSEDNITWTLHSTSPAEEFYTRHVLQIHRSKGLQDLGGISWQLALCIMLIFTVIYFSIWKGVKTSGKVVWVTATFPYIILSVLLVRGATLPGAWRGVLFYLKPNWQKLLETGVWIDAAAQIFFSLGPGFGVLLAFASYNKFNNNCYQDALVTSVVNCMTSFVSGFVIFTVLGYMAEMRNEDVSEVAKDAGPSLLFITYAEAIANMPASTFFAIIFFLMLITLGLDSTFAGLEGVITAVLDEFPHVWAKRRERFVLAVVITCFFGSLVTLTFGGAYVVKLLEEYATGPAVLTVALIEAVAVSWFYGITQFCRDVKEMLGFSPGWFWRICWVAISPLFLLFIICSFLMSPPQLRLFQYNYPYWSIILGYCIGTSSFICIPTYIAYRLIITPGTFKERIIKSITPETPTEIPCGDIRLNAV

T1 sequence (Q12809 whole entry): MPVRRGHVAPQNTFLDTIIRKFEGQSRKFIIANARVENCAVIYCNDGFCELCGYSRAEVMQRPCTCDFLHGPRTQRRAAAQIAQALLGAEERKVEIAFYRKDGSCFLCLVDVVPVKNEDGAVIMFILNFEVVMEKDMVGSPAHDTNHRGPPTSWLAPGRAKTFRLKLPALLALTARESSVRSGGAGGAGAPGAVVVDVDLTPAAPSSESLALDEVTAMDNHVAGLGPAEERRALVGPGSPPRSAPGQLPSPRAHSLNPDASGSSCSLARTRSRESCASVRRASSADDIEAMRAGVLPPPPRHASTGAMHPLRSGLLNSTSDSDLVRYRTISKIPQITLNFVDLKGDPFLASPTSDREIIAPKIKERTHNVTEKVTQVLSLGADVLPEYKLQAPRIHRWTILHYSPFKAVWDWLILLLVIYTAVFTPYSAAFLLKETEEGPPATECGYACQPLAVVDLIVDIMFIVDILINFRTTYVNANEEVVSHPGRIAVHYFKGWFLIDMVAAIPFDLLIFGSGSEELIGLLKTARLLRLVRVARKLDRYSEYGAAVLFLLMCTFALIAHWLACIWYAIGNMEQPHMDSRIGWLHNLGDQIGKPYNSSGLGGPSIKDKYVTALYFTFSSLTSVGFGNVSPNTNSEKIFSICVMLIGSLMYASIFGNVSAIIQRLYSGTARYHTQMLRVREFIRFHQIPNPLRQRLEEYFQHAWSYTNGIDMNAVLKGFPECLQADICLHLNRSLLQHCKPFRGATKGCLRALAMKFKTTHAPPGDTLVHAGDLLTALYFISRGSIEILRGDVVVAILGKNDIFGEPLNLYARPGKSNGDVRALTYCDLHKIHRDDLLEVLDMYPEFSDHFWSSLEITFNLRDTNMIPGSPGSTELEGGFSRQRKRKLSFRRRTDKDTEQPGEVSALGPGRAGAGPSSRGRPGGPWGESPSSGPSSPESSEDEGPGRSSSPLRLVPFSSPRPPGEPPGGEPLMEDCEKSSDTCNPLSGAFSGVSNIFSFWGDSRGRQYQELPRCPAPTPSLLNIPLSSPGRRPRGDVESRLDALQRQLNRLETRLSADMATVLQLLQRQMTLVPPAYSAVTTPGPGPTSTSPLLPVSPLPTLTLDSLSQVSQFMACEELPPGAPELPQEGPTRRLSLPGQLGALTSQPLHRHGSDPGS

With `O=C(c1ccc(F)c(Cl)c1)N1CCC(F)(CNCCOc2ccccc2)CC1` [Compound 3] the “% Inhibition of Tail Current in hERG-CHO” value (hERG channel; 0,1 µM) was 1.0%, the “% Inhibition of Tail Current in hERG-CHO” value (hERG channel; 1 µM) was 14.2% and the “% Inhibition of Tail Current in hERG-CHO” value (hERG channel; 10 µM) was 64.9%. The inhibition at 1 µM (5-HT1D) was 48%, the inhibition at 1 µM (5-HT2A) was 3% and the inhibition at 1 µM (5-HT3) was -4%. For the same compound, the inhibition at 1 µM (5-HT6) was -9%, the inhibition at 0.01 µM (α2A) was -5% and the inhibition at 0.1 µM (α2A) was 21%. For the same compound, the inhibition at 1 µM (α2A) was 66%, the inhibition at 0.01 µM (α2B) was -2% and the inhibition at 0.1 µM (α2B) was 45%. It also gave an inhibition at 1 µM (α2B) of 85%, an inhibition at 1 µM (β2) of 2% and an inhibition at 1 µM (β3) of -2%. The inhibition at 1 µM (D1) was 30%, the inhibition at 0.01 µM (D3) was 12% and the inhibition at 0.1 µM (D3) was 26%. For the same compound, the inhibition at 1 µM (D3) was 69%, the inhibition at 1 µM (CB1) was -9% and the inhibition at 1 µM (CB2) was 4%. For the same compound, the inhibition at 1 µM (M3) was 1%, the inhibition at 1 µM (H2) was -15% and the inhibition at 1 µM (H3) was -14%. The inhibition at 1 µM (H4) was -11%, the inhibition at 1 µM (µ (MOR)) was 26% and the inhibition at 0.01 µM (σ1) was 1%. The inhibition at 0.1 µM (σ1) was 15%, the inhibition at 1 µM (σ1) was 88% and the inhibition at 1 µM (BZDp (TSPO)) was -10%. For the same compound, the inhibition at 1 µM (SERT) was 8%.
With `O=C(c1ccc(F)c(Cl)c1)N1CCC(F)(CNCCOc2cccc3[nH]ccc23)CC1` [Compound 56, (4-(((2-((1H-Indol-4-yl)oxy)ethyl)amino)methyl)-4-fluoropiperidin-1-yl)(3-chloro-4-fluorophenyl)methanone] the “% Inhibition of Tail Current in hERG-CHO” value (hERG channel; 0,1 µM) was 0.3%, the “% Inhibition of Tail Current in hERG-CHO” value (hERG channel; 1 µM) was 6.4% and the “% Inhibition of Tail Current in hERG-CHO” value (hERG channel; 10 µM) was 21.1%. The inhibition at 0.001 µM (5-HT1D; 1 nM) was -14%, the inhibition at 0.01 µM (5-HT1D; 10 nM) was 27% and the inhibition at 0.1 µM (5-HT1D; 100 nM) was 80%. It also gave an inhibition at 1 µM (5-HT2A) of 10%, an inhibition at 1 µM (5-HT3) of -10% and an inhibition at 1 µM (5-HT6) of 1%. For the same compound, the inhibition at 0.01 µM (α2A) was -7%, the inhibition at 0.1 µM (α2A) was 33% and the inhibition at 1 µM (α2A) was 81%. It also gave an inhibition at 0.01 µM (α2B) of -8%, an inhibition at 0.1 µM (α2B) of 29% and an inhibition at 1 µM (α2B) of 75%. It also gave an inhibition at 1 µM (β2) of 9%, an inhibition at 1 µM (β3) of 1% and an inhibition at 0.01 µM (D1; 10 nM) of 12%. The inhibition at 0.1 µM (D1; 100 nM) was 52%, the inhibition at 1 µM (D1) was 89% and the inhibition at 0.001 µM (D3; 1 nM) was 41%. The inhibition at 0.01 µM (D3) was 36%, the inhibition at 0.1 µM (D3) was 85% and the inhibition at 1 µM (D3) was 99%. The inhibition at 1 µM (CB1) was -15%, the inhibition at 1 µM (CB2) was 1% and the inhibition at 1 µM (M3) was 1%. The inhibition at 1 µM (H2) was -33%, the inhibition at 1 µM (H3) was -17% and the inhibition at 1 µM (H4) was 5%. For the same compound, the inhibition at 0.01 µM (µ (MOR); 10 nM) was 10%, the inhibition at 0.1 µM (µ (MOR); 100 nM) was 58% and the inhibition at 1 µM (µ (MOR)) was 88%. The inhibition at 0.01 µM (σ1) was 1%, the inhibition at 0.1 µM (σ1) was 22% and the inhibition at 1 µM (σ1) was 86%. For the same compound, the inhibition at 1 µM (BZDp (TSPO)) was -6% and the inhibition at 1 µM (SERT) was 22%.
For `CNc1ccccc1OCCNCC1(F)CCN(C(=O)c2ccc(F)c(Cl)c2)CC1` [Compound 44, (3-Chloro-4-fluorophenyl)(4-fluoro-4-(((2-(2-(methylamino)phenoxy)ethyl)amino)methyl)piperidin-1-yl)methanone], the “% Inhibition of Tail Current in hERG-CHO” value (hERG channel; 1 µM) was 17.5%, the inhibition at 1 µM (5-HT1D) was 38% and the inhibition at 1 µM (5-HT2A) was -2%. It also gave an inhibition at 1 µM (5-HT3) of -11%, an inhibition at 1 µM (5-HT6) of 3% and an inhibition at 1 µM (α2A) of 10%. For the same compound, the inhibition at 1 µM (α2B) was -2%, the inhibition at 1 µM (β2) was -3% and the inhibition at 1 µM (β3) was -7%. It also gave an inhibition at 1 µM (D1) of 36%, an inhibition at 1 µM (D3) of 42% and an inhibition at 1 µM (CB1) of 3%. It also gave an inhibition at 1 µM (CB2) of -5%, an inhibition at 1 µM (M3) of 9% and an inhibition at 1 µM (H2) of -28%. It also gave an inhibition at 1 µM (H3) of -13%, an inhibition at 1 µM (H4) of -11% and an inhibition at 1 µM (µ (MOR)) of 22%. For the same compound, the inhibition at 0.01 µM (σ1) was 11%, the inhibition at 0.1 µM (σ1) was 31% and the inhibition at 1 µM (σ1) was 84%. The inhibition at 1 µM (BZDp (TSPO)) was -10% and the inhibition at 1 µM (SERT) was 18%.
